Marks after values point to notes of the source that are not given here.
Columns and labels:
Male Wister rats = experiment: Serum total cholesterol reducing effect in rats on high cholesterol feed; format: in vivo; conditions: oral, once a day for 3 days, rat
Procedure: Serum Total Cholesterol Reducing Effect
Male Wister rats weighing 180-200 g were bred under free access to a high cholesterol feed [added with cholesterol (1%), cholic acid (0.5%) and coconut oil (10%), Clea Japan, Inc.] for 3 days, during which period a test compound (10-100 mg/kg) suspended in 5% gum arabic solution was forcibly administered once a day orally for 3 days. Only 5% gum arabic solution was administered to control animals. After final administration, the test animals were fasted for 5 hours and the blood was taken. The serum total cholesterol level was determined using a commercially available assay kit (cholesterol-E-Test Wako, Wako Pure Chemical Industries, Ltd.). The activity of the test compound was expressed as a proportion (%) of reduction of serum total cholesterol level, namely, the proportion of reduction of serum total cholesterol as compared to control.

ACAT = ACAT inhibitory activity (small intestine mucosa microsomes, [1-14C]-oleoyl CoA, cholesteryl oleate production); format: biochemical, rabbit; conditions: inhibition of cholesteryl oleate production vs control
Procedure: A high cholesterol feed [a feed added with cholesterol (1%), Clea Japan, Inc.] was fed to male Japanese white rabbits weighing 2-2.5 kg at 100 g per day and the rabbits were bred for 4 weeks. The rabbits were killed by bleeding under anesthesia and small intestine was removed. The mucous membrane of small intestine was peeled, collected and homogenated. The homogenate was centrifuged at 4° C. and 10,000 rpm for 15 min. The obtained supernatant was further centrifuged at 4° C. and 41,000 rpm for 30 minutes to give microsomal fractions. Using this microsomal suspension as an enzyme sample, dimethyl sulfoxide (DMSO, 5 μl) or a test compound dissolved in DMSO (test compound solution, 5 μl), and a reaction substrate [1-^14C]-oleoyl CoA were added to a reaction buffer. After incubation at 37° C. for 5 minutes, a chloroform-methanol mixture was added to stop the reaction. Water was added thereto and mixed, and chloroform layer was separated. The solvent was evaporated to dryness, and the residue was dissolved in hexane. The mixture was subjected to thin layer chromatography using a silica gel plate. The spots of cholesteryl oleate on the silica gel plate were scraped, and quantitatively assayed on a liquid scintillation counter. The ACAT inhibitory activity of the test compound was expressed as a proportion (%) of inhibition of cholesteryl oleate, namely, the proportion of inhibition of cholesteryl oleate production as compared to control.

LDL = LDL peroxidation inhibitory effect (copper sulfate, malondialdehyde by thiobarbituric acid method); format: biochemical, rabbit; conditions: concentration 10^-5M; 37°C, 24 hours; malondialdehyde production inhibitory ratio
Procedure: LDL Peroxidation Inhibitory Effect
Male Japanese white rabbits weighing 2-2.5 kg were bred on 100 g per day of a high cholesterol feed [added with cholesterol (1%), Clea Japan, Inc.] for 4 weeks. The blood was taken from carotid and plasma was obtained. Then, LDL was fractionated from the plasma by ultracentrifugation, dialyzed for one day and preserved at 4° C. LDL (400 μg) and aqueous copper sulfate solution (final concentration 5 μM) were added to bufferized Ham F-10 medium (2 ml, GIBCO, USA). DMSO or a solution (20 μl) of test compound dissolved in DMSO was added and the mixture was incubated at 37° C. for 24 hours. After the completion of the incubation, LDL peroxide in medium was allowed to develop color by thiobarbituric acid method and assayed as malondialdehyde. The activity of the test compound was expressed as malondialdehyde production inhibitory ratio (%), namely, the proportion of inhibition of production of malondialdehyde as compared to control.

plasma = experiment: Plasma lipoperoxidation inhibitory effect (copper sulfate, malondialdehyde by thiobarbituric acid method); format: biochemical, rabbit; conditions: concentration 10^-5M; 37°C, 3 hours; malondialdehyde production inhibitory ratio
Procedure: Plasma Lipoperoxidation Inhibitory Effect
The blood was taken from male Japanese white rabbits weighing 2-2.5 kg under anesthesia and heparinized plasma was separated by a conventional method. To the plasma (2.0 ml) was added DMSO or a solution (20 μl, final concentration 10^−5 M) of test compound dissolved in DMSO, and aqueous copper sulfate solution (final concentration 5 mM) was added immediately thereafter. The mixture was incubated at 37° C. for 3 hours. After the completion of the incubation, 20% trichloroacetic acid was added to stop the reaction. Then, the mixture was centrifuged at 4° C., 4,500 rpm for 15 minutes. The lipoperoxide in the supernatant thus obtained was assayed as malondialdehyde upon color development by thiobarbituric acid method. The activity of the test compound was expressed as malondialdehyde production inhibitory ratio (%), namely, the proportion of inhibition of production of malondialdehyde as compared to control.

Row | SMILES | Result of Exp. Ex. 2: reduction of serum total cholesterol (Male Wister rats; dose 30 mg/kg/day) | Result of Exp. Ex. 1: ACAT inhibition (ACAT; concentration 10^-5M) | Result of Exp. Ex. 3: LDL peroxidation inhibition (LDL) [%] | Result of Exp. Ex. 4: plasma lipoperoxidation inhibition (plasma) [%] | Result of Exp. Ex. 2: reduction of serum total cholesterol (Male Wister rats; dose 10 mg/kg/day) | Result of Exp. Ex. 1: ACAT inhibition (ACAT; concentration 10^-4M)
1 | CCCCCCN1CCc2c(C)cc(C)c(NC(=O)C(C)(C)CCCC)c21 [Example 14] | 53.9 ** % | 96.6 ** % | 88.3 | 93.1 |  | 
2 | CCCCCCN1CCc2c(C)cc(C)c(NC(=O)C(C)(C)CCC(=O)O)c21 [Example 20] |  |  | 67.8 | 91.1 | 7.8 * % | 22.7 * %
3 | CCCCN1CCc2c(C)cc(C)c(NC(=O)C(C)(C)CCCC)c21 [Example 9] | 51.3 ** % | 81.3 ** % | 93.7 | 81.6 |  | 

— patent US6489475B2, “Method of producing heterocyclic derivatives” (Sankyo Company, Limited, priority 1994, dated 2002)
